Values joined by “and” are separate entries in the source; they are usually repeats but may differ in a detail not shown here. Equal entries are not always repeated.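 Cells were grown in 96-well plates and exposed to each compound for 48 hours at five concentrations; endpoints were interpolated linearly between bracketing concentrations, or set to the highest concentration if not reached. GI50 marks 50% less growth. The concentration for full growth arrest is given as TGI.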 Where only a bound is given, the exact number is not on record here.

This passage reports TGI and GI50 results from PubChem BioAssay (NCI).

What all share (experiment): NCI-60 cell line screen, 48 h
Assay [1] deals with RPMI-8226 leukemia.
Assay [2] relates to SK-MEL-28 melanoma.
In assay [3] the test system is SF-268 CNS.
The subject of assay [4] is SR leukemia.
The test system of assay [5] is NCI-H23 lung.
The subject of assay [6] is OVCAR-4 ovarian.
Assay [7] concerns U251 CNS.
For assay [8], the system named is K-562 leukemia.
Assay [9] concerns SF-295 CNS.
In assay [10] the test system is UACC-62 melanoma.

Take `Cc1cc(C2CCCCC2)n(O)c(=O)c1`: the TGI in assay [1] was 46.8 µM; in assay [2], over 100 µM; in assay [3], over 100 µM; in assay [4], over 100 µM; in assay [5] it was > 100 µM and 64.8 µM; in assay [6] it was over 100 µM. In addition, the TGI in [8] was over 100 µM; in assay [9] it was 86.8 µM and > 100 µM; in [10] it was 8.85 µM and 18.6 µM. In addition, the GI50 in assay [2] is 4.07 µM; in [3] it was 1.27 µM; in assay [4] it was 0.66 µM; in [5] it was 3.03 µM; in assay [6] it was 0.75 µM; in [7] it was 1.13 µM. In addition, the GI50 in [9] is 0.81 µM; in assay [10], 0.873 µM.

Consider `Cc1cccc(N2C(=O)C(Cl)=C(Cl)C2=O)c1`, for which the TGI in [1] was over 78.9 µM; in assay [2] it was over 100 µM; in assay [3], over 100 µM; in assay [4], 79.7 µM; in assay [5] it was over 100 µM; in assay [6], over 71.7 µM. Also, the TGI in assay [7] is over 100 µM; in assay [8] it was over 83.2 µM; in [9] it was over 100 µM; in [10] it was over 100 µM.

As to `COC(=O)C(=O)C(C(=O)C(=O)Nc1ccc(C)cc1C)c1nc2ccccc2[nH]c1=O` (centres undefined), the TGI in [1], in [2], in assay [3], in [4], in assay [5] and in [6] was over 100 µM each time. Moreover, the TGI in [7], in [8], in assay [9] and in assay [10] was over 100 µM each time.

With `CCCNC(=S)N/N=C(\C)c1ccccn1`, the GI50 in assay [1] was 0.0268 µM; in [2] it was 1.98 µM; in [3], 0.226 µM; in assay [4], 0.0517 µM; in [5], 0.022 µM; in [6] it was under 0.01 µM. The GI50 in [7] was 0.0497 µM; in [8], 0.0153 µM; in [9], 0.294 µM; in assay [10], 0.192 µM. Besides, the TGI in assay [1] is over 100 µM; in assay [2], over 100 µM; in assay [3] it was over 51.1 µM; in [4], 4.37 µM; in assay [5], over 100 µM; in assay [6] it was 0.0441 µM. The TGI in assay [7] is over 100 µM; in assay [8], over 100 µM; in assay [9], over 100 µM; in assay [10] it was 3.28 µM.

`C#CC[C@]12CC(=O)CC[C@H]1CC(=O)C2`: the TGI in assay [1], in assay [2], in assay [3], in [4], in assay [6] and in [7] was over 100 µM each time. The TGI in assay [8] and in assay [10] was over 100 µM each time.

In the case of `O=C(O)C(Sc1ccc(Cl)cc1)Sc1ccc(Cl)cc1`, the TGI in assay [1], in [2], in [3], in assay [4], in assay [5] and in assay [6] was over 100 µM in each case. Also, the TGI in [7] was over 100 µM; in assay [8], over 100 µM; in assay [9] it was over 100 µM; in assay [10], 72.1 µM.

As for `O=C(CC(=O)N1N=C(c2ccccc2)C(N=Nc2ccc(Cl)cc2)C1=O)Nc1ccccc1Cl` (centres undefined), the TGI is over 100 µM in assay [1]; 52.4 µM in assay [2]; 78 µM in assay [3]; over 100 µM in [4]; 97 µM in [5]; 37.2 µM in [6]. The TGI in [7] is 71.1 µM; in [8], over 100 µM; in assay [10], 53.3 µM.

`COc1cc(Cn2c(-c3ccccc3)cc3c2-c2oncc2CC3)cc(OC)c1OC`: the GI50 in [1] was 5.43 µM; in [2] it was 1.14 µM; in assay [3] it was 5.77 µM; in assay [4], 0.42 µM; in [5] it was 2.57 µM; in [6], 3.12 µM. In addition, the GI50 in assay [7] is 0.947 µM; in [8] it was 0.364 µM; in [9], 0.366 µM; in [10], 0.449 µM. The TGI was over 100 µM in assay [1]; 45.9 µM in assay [2]; over 100 µM in [3]; 43.2 µM in [4]; over 100 µM in [5]; over 100 µM in assay [6]. The TGI in assay [7] was 35.4 µM; in [8] it was over 100 µM; in assay [9], 5.57 µM; in assay [10], 77.5 µM.

In the case of `CCC1(O)C(=O)OCc2c1cc1n(c2=O)Cc2cc3c(N)cccc3nc2-1` (centres undefined), the GI50 in assay [1] is 0.0279 µM. Further, the TGI in [1] is 0.879 µM; in [2] it was 9.19 µM; in assay [3] it was 0.579 µM; in [4], under 0.0114 µM; in assay [5], 0.0806 µM; in [6], 11.6 µM. Besides, the TGI is 1.21 µM in assay [7], over 48.2 µM in assay [8], 2.01 µM in [9] and 0.0345 µM in [10].

Take `COc1ccc(-n2cc(-c3cc(OC)c(OC)c(OC)c3)[nH]c2=S)cc1OC`: the GI50 is over 100 µM in assay [1]; over 100 µM in assay [2]; over 100 µM in [3]; 2.57 µM in [4]; over 100 µM in assay [5]; over 100 µM in [6]. For the same compound, the GI50 in assay [7], in [8], in assay [9] and in assay [10] was over 100 µM in each case. Besides, the TGI was over 100 µM in assay [1]; over 100 µM in assay [2]; over 100 µM in assay [3]; 8.76 µM in [4]; over 100 µM in assay [5]; over 100 µM in assay [6]. For the same compound, the TGI in assay [7], in [8], in [9] and in [10] was over 100 µM each time.

With `N#Cc1cnsc1`, the TGI in [1], in assay [2], in [3], in [4], in assay [5] and in assay [6] was over 100 µM throughout. Moreover, the TGI in assay [7], in assay [8], in assay [9] and in assay [10] was over 100 µM throughout.

Regarding `N#C/C(C(=S)Nc1ccccc1)=C1/NN=C2c3ccccc3C(=O)NN21`, the GI50 was 32.3 µM in assay [1]; 25.3 µM in [2]; 35.3 µM in assay [3]; 19.5 µM in assay [4]; 26.2 µM in [6]; 32.1 µM in assay [7]. In addition, the GI50 is 22.1 µM in assay [8], 17.1 µM in assay [9] and 31.5 µM in assay [10]. Moreover, the TGI in assay [1] was over 100 µM; in assay [2] it was 97.7 µM; in [3] it was over 100 µM; in assay [4], over 100 µM; in assay [6], 91.2 µM; in [7], over 100 µM. The TGI in assay [8] is over 100 µM; in [9], 49.5 µM; in assay [10], over 100 µM.

As for `COc1ccc(C(=O)/C=C/c2cccnc2Nc2cc(OC)c(OC)c(OC)c2)cc1`, the GI50 in [1] is 0.885 µM; in [2], 2.7 µM; in assay [3] it was 3.04 µM; in [4] it was 0.0949 µM; in assay [5] it was 2.24 µM; in assay [6] it was 1.52 µM. Besides, the figures for the GI50 in assay [7], in [9] and in assay [10] were 0.926 µM, 1.71 µM and 1.71 µM, respectively. The TGI in assay [1] amounted to 4.71 µM; in [2], 8.29 µM; in assay [3], 14.8 µM; in [4], 2.43 µM; in assay [5], 17.6 µM; in assay [6], 10.1 µM. Further, the results for the TGI in [7], in assay [9] and in assay [10] were 7 µM, 18.9 µM and 4.38 µM, respectively.

As for `N#CCCN(CCC#N)c1ccc(/C=C2\N=C(CN3C(=O)c4ccccc4C3=O)OC2=O)cc1`, the TGI in [1], in assay [2], in [3], in [4], in assay [6] and in [7] was over 100 µM in each case. Also, the TGI in assay [8], in [9] and in [10] was over 100 µM each time.

As for `COc1ccc(-c2nc(-c3nc4ccc(C)cc4[nH]3)c3ccccn23)cc1`, the GI50 was 1.47 µM in assay [1]; 4.61 µM in [2]; 2.8 µM in assay [3]; 2.77 µM in [4]; 3.85 µM in assay [5]; 3.81 µM in assay [6]. Besides, the values for the GI50 in [7], in assay [8] and in [10] were 3.27 µM, 2.92 µM and 2.14 µM, respectively. Moreover, the TGI is 3.93 µM in assay [1]; over 100 µM in assay [2]; over 100 µM in assay [3]; over 100 µM in assay [4]; over 100 µM in assay [5]; over 100 µM in assay [6]. In addition, the figures for the TGI in assay [7], in [8] and in [10] were over 100 µM, over 100 µM and 5.66 µM, respectively.

For `C[C@]12CC[C@@H]3c4ccc(Oc5nc(N6CC6)nc(N6CC6)n5)cc4CC[C@H]3[C@@H]1CCC2=O`, the GI50 in assay [1] was 2.17 µM; in assay [2], 6.01 µM; in [3] it was 2.05 µM; in assay [4], 0.351 µM; in assay [5], 3.36 µM; in [6], 3.38 µM. The GI50 in assay [7] is 2 µM; in assay [8] it was 3.02 µM; in assay [9], 1.17 µM. For the same compound, the TGI in [1] amounted to 7.58 µM; in assay [2] it was 42.8 µM; in assay [3], 17.9 µM; in assay [4] it was 11.4 µM; in assay [5] it was 19 µM; in assay [6], 15.2 µM. The figures for the TGI in assay [7], in assay [8] and in assay [9] were 11.7 µM, 17.5 µM and 15.3 µM, respectively.

In the case of `CNC=O.[O]=[Ge].[O]=[Ge].[O]=[Ge].[O]=[Ge][OH].[O]=[Ge][OH]`, the TGI in assay [1], in assay [2], in assay [3], in assay [4], in assay [5] and in assay [6] was over 100 µM each time. For the same compound, the TGI in [8], in [9] and in [10] was over 100 µM in each case.

Take `C[C@]12CC[C@@H]3c4ccc(O)cc4C[C@@H](CCCCCCCCCS(=O)CCCC(F)(F)C(F)(F)F)[C@H]3[C@@H]1CC[C@@H]2O` (some centres undefined): the GI50 in assay [1] was 2.35 µM; in assay [2] it was over 100 µM; in [3] it was over 100 µM; in assay [4], over 100 µM; in assay [5], over 100 µM; in assay [6] it was over 100 µM. Also, the GI50 in [7], in [9] and in [10] was over 100 µM throughout. The TGI in [1], in assay [2], in assay [3], in [4], in [5] and in assay [6] was over 100 µM throughout. For the same compound, the TGI in assay [7], in assay [9] and in [10] was over 100 µM throughout.

With `COc1ccc2cc(C(=O)/C=C/c3cccc(OC)c3OC)ccc2c1`, the GI50 is 6.86 µM in assay [1]; 19.4 µM in assay [2]; 24.2 µM in assay [3]; 2.88 µM in assay [4]; 11.2 µM in assay [5]; 7.9 µM in assay [7]. For the same compound, the GI50 was 2.84 µM in [8] and 2.77 µM in assay [10]. In addition, the TGI in [1] is over 100 µM; in [2], 44.5 µM; in [3] it was 50.8 µM; in assay [4], over 100 µM; in assay [5], 25.3 µM; in [7], 22 µM. Further, the TGI in assay [8] was determined as 12.1 µM; in assay [10] it was 11 µM.
